Laboratory results taken from PubChem BioAssay AID248 (DTP/NCI, 2004).
Where “and” joins values, the source holds several entries; their conditions need not be identical. Equal entries are not always repeated. Inconclusive results and toxic doses are left out. Rule as the data show it: active = T/C of 150% or more; inactive = T/C below 125%.

System: L1210 leukemia ip in BDF1 mice, survival T/C
Assay: NCI In Vivo Anticancer Drug Screen. Data for tumor model L1210 Leukemia (intraperitoneal) in B6D2F1 (BDF1) mice
Conditions: endpoint: mean survival time, higher = longer survival
Outline: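 Value reflects the ratio of survival in compound-treated mice to survival in vehicle-treated controls, with both groups carrying the same transplanted tumor.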

[1] = dose: 100.0 mg/kg/injection, schedule: Q04DX002 (ip), vehicle: Klucel (hydroxypropylcellulose) (HPC)
[2] = dose: 200.0 mg/kg/injection, schedule: Q04DX002 (ip), vehicle: Klucel (hydroxypropylcellulose) (HPC)
[3] = dose: 25.0 mg/kg/injection, schedule: Q01DX001 (ip), vehicle: saline with Tween-80
[4] = dose: 100.0 mg/kg/injection, schedule: Q04DX003 (ip), vehicle: saline with Tween-80
[5] = dose: 200.0 mg/kg/injection, schedule: Q04DX003 (ip), vehicle: saline with Tween-80
[6] = dose: 400.0 mg/kg/injection, schedule: Q04DX003 (ip), vehicle: saline with Tween-80

Measured: T/C

O=C=NCCCl
inactive: dose: 0.5 mg/kg/injection, schedule: Q01DX001 (ip), vehicle: propolene glycol 101 % of control | dose: 1.0 mg/kg/injection, schedule: Q01DX001 (ip), vehicle: propolene glycol 90 % of control | dose: 2.0 mg/kg/injection, schedule: Q01DX001 (ip), vehicle: propolene glycol 89 % of control | dose: 3.0 mg/kg/injection, schedule: Q01DX001 (ip), vehicle: propolene glycol 89 % of control | dose: 4.0 mg/kg/injection, schedule: Q01DX001 (ip), vehicle: propolene glycol 92 % of control | dose: 6.0 mg/kg/injection, schedule: Q01DX001 (ip), vehicle: propolene glycol 89 % of control | dose: 6.5 mg/kg/injection, schedule: Q01DX001 (ip), vehicle: olive oil, sesame oil, peanut oil 98 % of control | dose: 8.0 mg/kg/injection, schedule: Q01DX001 (ip), vehicle: propolene glycol 92 % of control | dose: 12.5 mg/kg/injection, schedule: Q01DX001 (ip), vehicle: propolene glycol 95 % of control | dose: 12.5 mg/kg/injection, schedule: Q01DX009 (sc), vehicle: olive oil, sesame oil, peanut oil 95 % of control | dose: 13.0 mg/kg/injection, schedule: Q01DX001 (ip), vehicle: olive oil, sesame oil, peanut oil 104 % of control | dose: 25.0 mg/kg/injection, schedule: Q01DX001 (ip), vehicle: propolene glycol 91 % of control | dose: 25.0 mg/kg/injection, schedule: Q01DX009 (sc), vehicle: olive oil, sesame oil, peanut oil 103 % of control | dose: 26.0 mg/kg/injection, schedule: Q01DX001 (ip), vehicle: olive oil, sesame oil, peanut oil 96 % of control | dose: 40.0 mg/kg/injection, schedule: Q01DX001 (ip), vehicle: olive oil, sesame oil, peanut oil 102 % of control | dose: 50.0 mg/kg/injection, schedule: Q01DX009 (sc), vehicle: olive oil, sesame oil, peanut oil 97 % of control | dose: 60.0 mg/kg/injection, schedule: Q01DX001 (ip), vehicle: olive oil, sesame oil, peanut oil 98 % of control | dose: 93.0 mg/kg/injection, schedule: Q01DX001 (ip), vehicle: olive oil, sesame oil, peanut oil 100 % of control | dose: 100.0 mg/kg/injection, schedule: Q04DX003 (sc), vehicle: olive oil, sesame oil, peanut oil 97 % of control | dose: 125.0 mg/kg/injection, schedule: Q01DX001 (ip), vehicle: olive oil, sesame oil, peanut oil 106 % of control | dose: 187.0 mg/kg/injection, schedule: Q01DX001 (ip), vehicle: olive oil, sesame oil, peanut oil 98 % of control | dose: 250.0 mg/kg/injection, schedule: Q01DX001 (ip), vehicle: olive oil, sesame oil, peanut oil 98 % of control | dose: 250.0 mg/kg/injection, schedule: Q01DX001 (ip), vehicle: propolene glycol 113 % of control | dose: 375.0 mg/kg/injection, schedule: Q01DX001 (ip), vehicle: olive oil, sesame oil, peanut oil 104 % of control | dose: 500.0 mg/kg/injection, schedule: Q01DX001 (ip), vehicle: olive oil, sesame oil, peanut oil 93 % of control

CC1(C)C(N2CCCC2)N(C(=O)c2ccccc2)SC12c1ccccc1-c1ccccc12 (configuration not stated)
inactive: [1] 102 % of control | [2] 105 % of control | dose: 400.0 mg/kg/injection, schedule: Q04DX002 (ip), vehicle: Klucel (hydroxypropylcellulose) (HPC) 98 % of control

Nc1nc(N)nc(CCN2CCCCC2)n1
inactive: dose: 6.25 mg/kg/injection, schedule: Q01DX001 (ip), vehicle: saline with Tween-80 94 % of control | dose: 12.5 mg/kg/injection, schedule: Q01DX001 (ip), vehicle: saline with Tween-80 102 % of control | [3] 102 % of control

CCOC(=O)c1cnc(SC)nc1Nc1ccc(C)cc1
inactive: [4] 97 % of control | [5] 91 % of control | [6] 86 % of control

Cc1ccc(S(=O)(=O)N(CCCc2c(-c3ccccc3)nc(N)[nH]c2=O)c2ccccc2)cc1
inactive: dose: 100.0 mg/kg/injection, schedule: Q01DX009 (ip), vehicle: gum acacia 101 % of control | dose: 200.0 mg/kg/injection, schedule: Q01DX009 (ip), vehicle: gum acacia 100 % of control | dose: 400.0 mg/kg/injection, schedule: Q01DX009 (ip), vehicle: gum acacia 99 % of control

O=S(=O)(c1ccccc1)N1CC1CBr (configuration not stated)
inactive: dose: 100.0 mg/kg/injection, schedule: Q01DX001 (ip), vehicle: other 105 % of control | dose: 200.0 mg/kg/injection, schedule: Q01DX001 (ip), vehicle: other 100 % of control | dose: 400.0 mg/kg/injection, schedule: Q01DX001 (ip), vehicle: other 108 % of control

Nc1cc(Nc2cccc(Br)c2)nc(N)n1
inactive: [1] 97 % of control | [2] 108 % of control

CC(C)C(=O)c1ccc([N+](=O)[O-])o1
inactive: dose: 100.0 mg/kg/injection, schedule: Q01DX009 (ip), vehicle: saline with Tween-80 94 % of control | [4] 99 % of control | dose: 200.0 mg/kg/injection, schedule: Q01DX009 (ip), vehicle: saline with Tween-80 96 % of control | [5] 99 % of control | [6] 88 % of control

Cc1cc(N=CN(C)C)c2ccccc2n1
inactive: [3] 102 % of control | dose: 50.0 mg/kg/injection, schedule: Q01DX001 (ip), vehicle: saline with Tween-80 101 % of control | dose: 50.0 mg/kg/injection, schedule: Q04DX003 (ip), vehicle: saline with Tween-80 108 % of control | [4] 98 % of control

COc1ccc(C(=O)Nc2ccccc2)cc1NC(=S)Nc1ccccc1
inactive: [1] 95 % of control | [2] 98 % of control

CCNC(=O)OCCN1C(=O)C2C3CCC(O3)C2C1=O (configuration not stated)
inactive: dose: 100.0 mg/kg/injection, schedule: Q01DX001 (ip), vehicle: saline with Tween-80 98 % of control | [4] 100 % of control | dose: 200.0 mg/kg/injection, schedule: Q01DX001 (ip), vehicle: saline with Tween-80 103 % of control | [5] 100 % of control | dose: 400.0 mg/kg/injection, schedule: Q01DX001 (ip), vehicle: saline with Tween-80 113 % of control | [6] 97 % of control

CC(=O)OCC1OC(n2cnc3c(=S)nc(N)[nH]c32)CC1OC(C)=O (configuration not stated)
inactive: dose: 2.5 mg/kg/injection, schedule: Q01DX002 (ip), vehicle: Klucel (hydroxypropylcellulose) (HPC) 118 % of control | dose: 5.0 mg/kg/injection, schedule: Q04DX003 (ip), vehicle: Klucel (hydroxypropylcellulose) (HPC) 117 % of control | dose: 10.0 mg/kg/injection, schedule: Q01DX002 (ip), vehicle: Klucel (hydroxypropylcellulose) (HPC) 119 % of control | dose: 10.0 mg/kg/injection, schedule: Q04DX003 (ip), vehicle: Klucel (hydroxypropylcellulose) (HPC) 121 % of control | dose: 20.0 mg/kg/injection, schedule: Q01DX002 (ip), vehicle: Klucel (hydroxypropylcellulose) (HPC) 123 % of control

CCCCCCOC(=O)C1OC1(C)c1ccccc1 (configuration not stated)
inactive: dose: 100.0 mg/kg/injection, schedule: Q04DX002 (ip), vehicle: saline 108 % of control | dose: 200.0 mg/kg/injection, schedule: Q04DX002 (ip), vehicle: saline 112 % of control | dose: 400.0 mg/kg/injection, schedule: Q04DX002 (ip), vehicle: saline 93 % of control

OCc1nc2cc(Cl)c(Cl)cc2[nH]1
inactive: dose: 100.0 mg/kg/injection, schedule: Q01DX001 (ip), vehicle: saline 93 % of control | dose: 200.0 mg/kg/injection, schedule: Q01DX001 (ip), vehicle: saline 96 % of control | dose: 400.0 mg/kg/injection, schedule: Q01DX001 (ip), vehicle: saline 102 % of control

COc1ccccc1N1CCN(CCc2c[nH]c3cc4c(cc23)OCO4)CC1
inactive: dose: 3.12 mg/kg/injection, schedule: Q01DX009 (ip), vehicle: Klucel (hydroxypropylcellulose) (HPC) 103 % of control | dose: 6.25 mg/kg/injection, schedule: Q01DX009 (ip), vehicle: Klucel (hydroxypropylcellulose) (HPC) 97 % of control and 110 % of control | dose: 12.5 mg/kg/injection, schedule: Q01DX009 (ip), vehicle: Klucel (hydroxypropylcellulose) (HPC) 106 % of control and 111 % of control and 120 % of control | dose: 12.5 mg/kg/injection, schedule: Q04DX003 (ip), vehicle: Klucel (hydroxypropylcellulose) (HPC) 94 % of control | dose: 25.0 mg/kg/injection, schedule: Q01DX009 (ip), vehicle: Klucel (hydroxypropylcellulose) (HPC) 89 % of control | dose: 25.0 mg/kg/injection, schedule: Q01DX015 (ip), vehicle: carboxymethylcellulose (CMC) 102 % of control and 106 % of control | dose: 25.0 mg/kg/injection, schedule: Q04DX003 (ip), vehicle: Klucel (hydroxypropylcellulose) (HPC) 102 % of control | dose: 50.0 mg/kg/injection, schedule: Q01DX015 (ip), vehicle: carboxymethylcellulose (CMC) 104 % of control | dose: 50.0 mg/kg/injection, schedule: Q04DX003 (ip), vehicle: Klucel (hydroxypropylcellulose) (HPC) 105 % of control | dose: 100.0 mg/kg/injection, schedule: Q01DX009 (ip), vehicle: Klucel (hydroxypropylcellulose) (HPC) 112 % of control | dose: 100.0 mg/kg/injection, schedule: Q01DX015 (ip), vehicle: carboxymethylcellulose (CMC) 118 % of control | dose: 100.0 mg/kg/injection, schedule: Q04DX003 (ip), vehicle: Klucel (hydroxypropylcellulose) (HPC) 102 % of control
